Results taken from patent US9266876B2 (Actelion Pharmaceuticals Ltd., priority 2012, dated 2016).

molecular target: human CXCR3A (Homo sapiens (Human), UniProt P49682); experiment: FLIPR assay; type: cell-based; settings: CHO-K1 cells expressing the human CXCR3A coupled to Galpha(16); CXCL10 agonist 20 nM; Fluo-4-AM fluorescence; mean values if determined several times
Protocol: The bioactivity of compounds is tested in a fluorometric imaging plate reader (FLIPR: Molecular Devices) using engineered CHO-K1 cells expressing the human CXCR3A coupled to a G protein (Galpha(16)). Cells are plated the day prior to bioassay in F12 medium supplemented with 10% FBS and G418 and hygromycin antibiotics to maintain recombinant selection. At the day of bioassay, cells are washed and dye loaded for one hour with Fluo-4-AM (Invitrogen) in Hanks Balanced Salt Solution (Invitrogen), buffered with 20 mM Hepes at pH 7.4 and sodium bicarbonate (0.015%), containing 5 mM probenecid. […] Cells are washed free of excess dye and 60 microliter of wash buffer is added. Stock solutions of test compounds are made up at a concentration of 10 mM in DMSO, and serially diluted in dilution buffer to concentrations required for inhibition dose response curves. After a 10 minute incubation period at 37° C., 10 microliters of each compound dilution are transferred from a compound plate to the plate containing the recombinant cells in the FLIPR instrument according to the manufacturer's instructions. Following basal readings, 10 microliter CXCL10 agonist at a concentration of 20 nM (from Peprotech) is added, again using the FLIPR instrument. Changes in fluorescence are monitored before and after addition of the test compounds. Emission peak values above base level after CXCL10 addition are exported after base line subtraction. The program XLfit is used to fit the data to a single site dose response curve and to calculate IC50 values.

Sequence of human CXCR3A (P49682 whole entry): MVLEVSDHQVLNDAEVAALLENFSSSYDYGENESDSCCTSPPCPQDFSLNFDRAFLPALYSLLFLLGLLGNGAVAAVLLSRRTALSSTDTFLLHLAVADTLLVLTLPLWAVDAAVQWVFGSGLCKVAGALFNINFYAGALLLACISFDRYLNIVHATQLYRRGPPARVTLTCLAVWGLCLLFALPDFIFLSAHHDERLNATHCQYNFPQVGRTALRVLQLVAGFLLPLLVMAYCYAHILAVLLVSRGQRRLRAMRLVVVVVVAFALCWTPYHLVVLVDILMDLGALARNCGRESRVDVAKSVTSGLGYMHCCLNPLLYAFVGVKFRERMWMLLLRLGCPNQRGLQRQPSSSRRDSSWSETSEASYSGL

Row | Molecule | IC50 [nM]
1 | 1-{(R)-4-[4-(1H-Benzoimidazol-2-yl)-thiazol-5-yl]-2-methoxymethyl-piperazin-1-yl}-2-pyrrolo[2,3-b]pyridin-1-yl-ethanone [Example 20] | 69
2 | O=C(Cn1ccc(C(F)(F)F)n1)N1CCN(c2scnc2-c2nc3ccccc3[nH]2)CC1 [Example 5, 1-{4-[4-(1H-Benzoimidazol-2-yl)-thiazol-5-yl]-piperazin-1-yl}-2-(3-trifluoromethyl-pyrazol-1-yl)-ethanone] | 33
3 | Cc1ccn(CC(=O)N2CCN(c3scnc3-c3nc4ccccc4[nH]3)CC2)n1 [Example 6, 1-{4-[4-(1H-Benzoimidazol-2-yl)-thiazol-5-yl]-piperazin-1-yl}-2-(3-methyl-pyrazol-1-yl)-ethanone] | 130
4 | Cc1nc(CC(=O)N2CCN(c3scnc3-c3nc4ccccc4[nH]3)CC2)cs1 [Example 7, 1-{4-[4-(1H-Benzoimidazol-2-yl)-thiazol-5-yl]-piperazin-1-yl}-2-(2-methyl-thiazol-4-yl)-ethanone] | 516
5 | O=C(Cc1cn2nc(Cl)ccc2n1)N1CCN(c2scnc2-c2nc3ccccc3[nH]2)CC1 [Example 8, 1-{4-[4-(1H-Benzoimidazol-2-yl)-thiazol-5-yl]-piperazin-1-yl}-2-(6-chloro-imidazo[1,2-b]pyridazin-2-yl)-ethanone] | 392
6 | Cc1nc2ccccn2c1CC(=O)N1CCN(c2scnc2-c2nc3ccccc3[nH]2)CC1 [Example 9, 1-{4-[4-(1H-Benzoimidazol-2-yl)-thiazol-5-yl]-piperazin-1-yl}-2-(2-methyl-imidazo[1,2-a]pyridin-3-yl)-ethanone] | 90
7 | Cc1nc(C)c(CC(=O)N2CCN(c3scnc3-c3nc4ccccc4[nH]3)CC2)s1 [Example 11, 1-{4-[4-(1H-Benzoimidazol-2-yl)-thiazol-5-yl]-piperazin-1-yl}-2-(2,4-dimethyl-thiazol-5-yl)-ethanone] | 311
8 | COc1ccc2onc(CC(=O)N3CCN(c4scnc4-c4nc5ccccc5[nH]4)CC3)c2c1 [Example 12, 1-{4-[4-(1H-Benzoimidazol-2-yl)-thiazol-5-yl]-piperazin-1-yl}-2-(5-methoxy-benzo[d]isoxazol-3-yl)-ethanone] | 314
9 | Cc1cc(C)n(CC(=O)N2CCN(c3scnc3-c3nc4ccccc4[nH]3)CC2)n1 [Example 13, 1-{4-[4-(1H-Benzoimidazol-2-yl)-thiazol-5-yl]-piperazin-1-yl}-2-(3,5-dimethyl-pyrazol-1-yl)-ethanone] | 92
10 | Cc1nc(-c2nc3ccccc3[nH]2)c(N2CCN(C(=O)Cn3ccc4cccnc43)CC2)s1 [Example 40, 1-{4-[4-(1H-Benzoimidazol-2-yl)-2-methyl-thiazol-5-yl]-piperazin-1-yl}-2-pyrrolo[2,3-b]pyridin-1-yl-ethanone] | 20
11 | O=C(Cn1ccc2cccnc21)N1CCN(c2sc(-c3ccccc3)nc2-c2nc3ccccc3[nH]2)CC1 [Example 41, 1-{4-[4-(1H-Benzoimidazol-2-yl)-2-phenyl-thiazol-5-yl]-piperazin-1-yl}-2-pyrrolo[2,3-b]pyridin-1-yl-ethanone] | 77
12 | O=C(Cn1ccc2cccnc21)N1CCN(c2sc(Cl)nc2-c2nc3ccccc3[nH]2)CC1 [Example 42, 1-{4-[4-(1H-Benzoimidazol-2-yl)-2-chloro-thiazol-5-yl]-piperazin-1-yl}-2-pyrrolo[2,3-b]pyridin-1-yl-ethanone] | 547
13 | O=C(Cn1cnc2cccnc21)N1CCCN(c2scnc2-c2nc3ccccc3[nH]2)CC1 [Example 45, 1-{4-[4-(1H-Benzoimidazol-2-yl)-thiazol-5-yl]-[1,4]diazepan-1-yl}-2-imidazo[4,5-b]pyridin-3-yl-ethanone] | 48
14 | O=C(Cn1cnc2cccnc21)N1CCC(c2scnc2-c2nc3ccccc3[nH]2)CC1 [Example 48, 1-{4-[4-(1H-Benzoimidazol-2-yl)-thiazol-5-yl]-piperidin-1-yl}-2-imidazo[4,5-b]pyridin-3-yl-ethanone] | 448
15 | COc1cccc2c1ccn2CC(=O)N1CCN(c2scnc2-c2nc3ccccc3[nH]2)CC1 [Example 52, 1-{4-[4-(1H-Benzoimidazol-2-yl)-thiazol-5-yl]-piperazin-1-yl}-2-(4-methoxy-indol-1-yl)-ethanone] | 136
16 | O=C(Cn1ccc2ccc(C(F)(F)F)cc21)N1CCN(c2scnc2-c2nc3ccccc3[nH]2)CC1 [Example 54, 1-{4-[4-(1H-Benzoimidazol-2-yl)-thiazol-5-yl]-piperazin-1-yl}-2-(6-trifluoromethyl-indol-1-yl)-ethanone] | 112
17 | Cc1cc2ccccc2n1CC(=O)N1CCN(c2scnc2-c2nc3ccccc3[nH]2)CC1 [Example 58, 1-{4-[4-(1H-Benzoimidazol-2-yl)-thiazol-5-yl]-piperazin-1-yl}-2-(2-methyl-indol-1-yl)-ethanone] | 34
18 | O=C(Cn1c(C(F)(F)F)nc2ccccc21)N1CCN(c2scnc2-c2nc3ccccc3[nH]2)CC1 [Example 64, 1-{4-[4-(1H-Benzoimidazol-2-yl)-thiazol-5-yl]-piperazin-1-yl}-2-(2-trifluoromethyl-benzoimidazol-1-yl)-ethanone] | 111

Molecules with a lower IC50, results first:

Row | IC50 [nM] | Molecule
19 | 18 | C[C@H]1CN(c2scnc2-c2nc3ccccc3[nH]2)CCN1C(=O)Cn1cnc2cccnc21 [Example 47, 1-{(S)-4-[4-(1H-Benzoimidazol-2-yl)-thiazol-5-yl]-2-methyl-piperazin-1-yl}-2-imidazo[4,5-b]pyridin-3-yl-ethanone]
20 | 17 | COc1cc2nc(-c3ncsc3N3CCN(C(=O)Cn4c(=O)n(C)c5ccccc54)CC3)[nH]c2cc1OC [Example 36, 1-(2-{4-[4-(5,6-Dimethoxy-1H-benzoimidazol-2-yl)-thiazol-5-yl]-piperazin-1-yl}-2-oxo-ethyl)-3-methyl-1,3-dihydro-benzoimidazol-2-one]
21 | 15 | O=C(Cn1ccc2cc(Cl)c(Cl)cc21)N1CCN(c2scnc2-c2nc3ccccc3[nH]2)CC1 [Example 53, 1-{4-[4-(1H-Benzoimidazol-2-yl)-thiazol-5-yl]-piperazin-1-yl}-2-(5,6-dichloro-indol-1-yl)-ethanone]
22 | 13 | Cc1cn(CC(=O)N2CCN(c3scnc3-c3nc4ccccc4[nH]3)CC2)c2ccc(F)cc12 [Example 63, 1-{4-[4-(1H-Benzoimidazol-2-yl)-thiazol-5-yl]-piperazin-1-yl}-2-(5-fluoro-3-methyl-indol-1-yl)-ethanone]
23 | 10 | Cn1c(=O)n(CC(=O)N2CCN(c3scnc3-c3nc4ccc(F)cc4[nH]3)CC2)c2ccccc21 [Example 34, 1-(2-{4-[4-(6-Fluoro-1H-benzoimidazol-2-yl)-thiazol-5-yl]-piperazin-1-yl}-2-oxo-ethyl)-3-methyl-1,3-dihydro-benzoimidazol-2-one]
24 | 6 | COc1cc2c(ccn2CC(=O)N2CCN(c3scnc3-c3nc4ccccc4[nH]3)CC2)cc1Cl [Example 62, 1-{4-[4-(1H-Benzoimidazol-2-yl)-thiazol-5-yl]-piperazin-1-yl}-2-(5-chloro-6-methoxy-indol-1-yl)-ethanone]
25 | 5 | COc1ccc2[nH]c(-c3ncsc3N3CCN(C(=O)Cn4c(=O)n(C)c5ccccc54)CC3)nc2c1 [Example 33, 1-(2-{4-[4-(5-Methoxy-1H-benzoimidazol-2-yl)-thiazol-5-yl]-piperazin-1-yl}-2-oxo-ethyl)-3-methyl-1,3-dihydro-benzoimidazol-2-one]
26 | 4 | Cn1c(=O)n(CC(=O)N2CCN(c3scnc3-c3nc4c(Cl)cccc4[nH]3)CC2)c2ccccc21 [Example 29, 1-(2-{4-[4-(4-Chloro-1H-benzoimidazol-2-yl)-thiazol-5-yl]-piperazin-1-yl}-2-oxo-ethyl)-3-methyl-1,3-dihydro-benzoimidazol-2-one]
27 | 4 | O=C(Cn1ccc2ccc(F)cc21)N1CCN(c2scnc2-c2nc3ccccc3[nH]2)CC1 [Example 56, 1-{4-[4-(1H-Benzoimidazol-2-yl)-thiazol-5-yl]-piperazin-1-yl}-2-(6-fluoro-indol-1-yl)-ethanone]
28 | 4 | N#Cc1cn(CC(=O)N2CCN(c3scnc3-c3nc4ccccc4[nH]3)CC2)c2ccccc12 [Example 59, 1-(2-{4-[4-(1H-Benzoimidazol-2-yl)-thiazol-5-yl]-piperazin-1-yl}-2-oxo-ethyl)-1H-indole-3-carbonitrile]
29 | 2 | C[C@@H]1CN(c2scnc2-c2nc3c(F)cccc3[nH]2)CCN1C(=O)Cn1ccc2cccnc21 [Example 21, 1-{(R)-4-[4-(4-Fluoro-1H-benzoimidazol-2-yl)-thiazol-5-yl]-2-methyl-piperazin-1-yl}-2-pyrrolo[2,3-b]pyridin-1-yl-ethanone]
30 | 1 | C[C@@H]1CN(c2scnc2-c2nc3cc(Cl)c(F)cc3[nH]2)CCN1C(=O)Cn1ccc2cccnc21 [Example 26, 1-{(R)-4-[4-(5-Chloro-6-fluoro-1H-benzoimidazol-2-yl)-thiazol-5-yl]-2-methyl-piperazin-1-yl}-2-pyrrolo[2,3-b]pyridin-1-yl-ethanone]
31 | 1 | C[C@@H]1CN(c2scnc2-c2nc3c(F)c(F)ccc3[nH]2)CCN1C(=O)Cn1ccc2cccnc21 [Example 28, 1-{(R)-4-[4-(4,5-Difluoro-1H-benzoimidazol-2-yl)-thiazol-5-yl]-2-methyl-piperazin-1-yl}-2-pyrrolo[2,3-b]pyridin-1-yl-ethanone]
